Species on record: Rattus norvegicus
Test: DrugMatrix - Regimen: Daily Repeat
Format: toxicity, organism-based, Sprague-Dawley
Set-up: regimen Daily Repeat, gender Male, age 6-8 weeks
Conditions: in vivo, po, route oral GAVAGE, vehicle .5 % CMC; for ABSOLUTE BASOPHIL / ABSOLUTE EOSINOPHIL / ABSOLUTE LYMPHOCYTE / ABSOLUTE MONOCYTE / ABSOLUTE SEGMENTED NEUTROPHIL / BASOPHIL / EOSINOPHIL / ERYTHROCYTE COUNT / HEMATOCRIT / HEMOGLOBIN / LEUKOCYTE COUNT / LYMPHOCYTE / MEAN CORPUSCULAR HEMOGLOBIN / MEAN CORPUSCULAR HEMOGLOBIN CONCENTRATION / MEAN CORPUSCULAR VOLUME / MONOCYTE / NEUTROPHIL / NUCLEATED RED BLOOD CELLS / PLATELET COUNT: tissue Blood; for ALANINE AMINOTRANSFERASE / ALBUMIN / ALKALINE PHOSPHATASE / ASPARTATE AMINOTRANSFERASE / BLOOD UREA NITROGEN / CARBON DIOXIDE / CHLORIDE / CHOLESTEROL / CREATINE PHOSPHOKINASE / CREATININE / GLUCOSE / LACTATE DEHYDROGENASE / LIPASE / PHOSPHORUS / POTASSIUM / SODIUM / TOTAL BILIRUBIN / TOTAL PROTEIN / URIC ACID: tissue Plasma
[1] = 0 mg/kg, 72 h, dose level Control, time 3 day
[2] = 0 mg/kg, 120 h, dose level Control, time 5 day
[3] = 4.5 mg/kg, 72 h, dose level Low, time 3 day

CC(C(=O)O)c1ccc(-c2ccccc2)c(F)c1 (centres undefined) [FLURBIPROFEN]
ABSOLUTE BASOPHIL [1]: 0 CELLS/uL
ABSOLUTE EOSINOPHIL [1]: 222.83 CELLS/uL
ABSOLUTE LYMPHOCYTE [1]: 14453 CELLS/uL
ABSOLUTE MONOCYTE [1]: 0 CELLS/uL
ABSOLUTE SEGMENTED NEUTROPHIL [1]: 1490.83 CELLS/uL
BASOPHIL [1]: 0%
EOSINOPHIL [1]: 1.33%
ERYTHROCYTE COUNT [1]: 5.76 x10E6/uL
HEMATOCRIT [1]: 36.52%
HEMOGLOBIN [1]: 13.45 G/DL
LEUKOCYTE COUNT [1]: 16.17 x10E3/uL
LYMPHOCYTE [1]: 89.33%
MEAN CORPUSCULAR HEMOGLOBIN [1]: 23.37 pg
MEAN CORPUSCULAR HEMOGLOBIN CONCENTRATION [1]: 36.85 G/DL
MEAN CORPUSCULAR VOLUME [1]: 63.47 fL
MONOCYTE [1]: 0%
NEUTROPHIL [1]: 9.33%
NUCLEATED RED BLOOD CELLS [1]: 0 /100WBC
PLATELET COUNT [1]: 1239.5 x10E3/uL
ALANINE AMINOTRANSFERASE [1]: 43.83 u/L
ALBUMIN [1]: 4.27 G/DL
ALKALINE PHOSPHATASE [1]: 398.83 u/L
ASPARTATE AMINOTRANSFERASE [1]: 81.17 u/L
BLOOD UREA NITROGEN [1]: 17.67 mg/dL
CARBON DIOXIDE [1]: 27.5 mmol/L
CHLORIDE [1]: 99.17 MEQ/L
CHOLESTEROL [1]: 74 mg/dL
CREATINE PHOSPHOKINASE [1]: 331.5 u/L
CREATININE [1]: 0.2 mg/dL
GLUCOSE [1]: 171.33 mg/dL
LACTATE DEHYDROGENASE [1]: 241.67 u/L
LIPASE [1]: 9.5 u/L
PHOSPHORUS [1]: 12.25 mg/dL
POTASSIUM [1]: 6.33 MEQ/L
SODIUM [1]: 141.28 MEQ/L
TOTAL BILIRUBIN [1]: 0.15 mg/dL
TOTAL PROTEIN [1]: 5.98 G/DL
URIC ACID [1]: 1.63 mg/dL
ABSOLUTE BASOPHIL [2]: 0 CELLS/uL
ABSOLUTE EOSINOPHIL [2]: 148.67 CELLS/uL
ABSOLUTE LYMPHOCYTE [2]: 16020.5 CELLS/uL
ABSOLUTE MONOCYTE [2]: 29.17 CELLS/uL
ABSOLUTE SEGMENTED NEUTROPHIL [2]: 1468.33 CELLS/uL
BASOPHIL [2]: 0%
EOSINOPHIL [2]: 1%
ERYTHROCYTE COUNT [2]: 5.78 x10E6/uL
HEMATOCRIT [2]: 35.77%
HEMOGLOBIN [2]: 13.4 G/DL
LEUKOCYTE COUNT [2]: 17.67 x10E3/uL
LYMPHOCYTE [2]: 90.5%
MEAN CORPUSCULAR HEMOGLOBIN [2]: 23.22 pg
MEAN CORPUSCULAR HEMOGLOBIN CONCENTRATION [2]: 37.47 G/DL
MEAN CORPUSCULAR VOLUME [2]: 61.92 fL
MONOCYTE [2]: 0.17%
NEUTROPHIL [2]: 8.33%
NUCLEATED RED BLOOD CELLS [2]: 0.17 /100WBC
PLATELET COUNT [2]: 1255.5 x10E3/uL
ALANINE AMINOTRANSFERASE [2]: 46.5 u/L
ALBUMIN [2]: 4.38 G/DL
ALKALINE PHOSPHATASE [2]: 336 u/L
ASPARTATE AMINOTRANSFERASE [2]: 76.5 u/L
BLOOD UREA NITROGEN [2]: 20 mg/dL
CARBON DIOXIDE [2]: 27.5 mmol/L
CHLORIDE [2]: 101 MEQ/L
CHOLESTEROL [2]: 71.33 mg/dL
CREATINE PHOSPHOKINASE [2]: 231.83 u/L
CREATININE [2]: 0.37 mg/dL
GLUCOSE [2]: 168.83 mg/dL
LACTATE DEHYDROGENASE [2]: 174 u/L
LIPASE [2]: 8.67 u/L
PHOSPHORUS [2]: 11.48 mg/dL
POTASSIUM [2]: 6.82 MEQ/L
SODIUM [2]: 143.8 MEQ/L
TOTAL BILIRUBIN [2]: 0.2 mg/dL
TOTAL PROTEIN [2]: 5.98 G/DL
URIC ACID [2]: 1.83 mg/dL
ABSOLUTE BASOPHIL [3]: 0 CELLS/uL
ABSOLUTE EOSINOPHIL [3]: 292.33 CELLS/uL
ABSOLUTE LYMPHOCYTE [3]: 14732.33 CELLS/uL
ABSOLUTE MONOCYTE [3]: 0 CELLS/uL
ABSOLUTE SEGMENTED NEUTROPHIL [3]: 2542 CELLS/uL
BASOPHIL [3]: 0%
EOSINOPHIL [3]: 1.67%
ERYTHROCYTE COUNT [3]: 5.5 x10E6/uL
HEMATOCRIT [3]: 34.7%
HEMOGLOBIN [3]: 12.83 G/DL
LEUKOCYTE COUNT [3]: 17.57 x10E3/uL
LYMPHOCYTE [3]: 83.67%
MEAN CORPUSCULAR HEMOGLOBIN [3]: 23.33 pg
MEAN CORPUSCULAR HEMOGLOBIN CONCENTRATION [3]: 36.97 G/DL
MEAN CORPUSCULAR VOLUME [3]: 63.03 fL
MONOCYTE [3]: 0%
NEUTROPHIL [3]: 14.67%
NUCLEATED RED BLOOD CELLS [3]: 0 /100WBC
PLATELET COUNT [3]: 1184.67 x10E3/uL
ALANINE AMINOTRANSFERASE [3]: 49.67 u/L
ALBUMIN [3]: 3.57 G/DL
ALKALINE PHOSPHATASE [3]: 319 u/L
ASPARTATE AMINOTRANSFERASE [3]: 69.33 u/L
BLOOD UREA NITROGEN [3]: 13.33 mg/dL
CARBON DIOXIDE [3]: 30 mmol/L
CHLORIDE [3]: 99.67 MEQ/L
CHOLESTEROL [3]: 69 mg/dL
CREATINE PHOSPHOKINASE [3]: 219.67 u/L
CREATININE [3]: 0.25 mg/dL
GLUCOSE [3]: 168.33 mg/dL
LACTATE DEHYDROGENASE [3]: 123.67 u/L
LIPASE [3]: 8.33 u/L
PHOSPHORUS [3]: 12.13 mg/dL
POTASSIUM [3]: 6.57 MEQ/L
SODIUM [3]: 143.2 MEQ/L
TOTAL BILIRUBIN [3]: 0.23 mg/dL
TOTAL PROTEIN [3]: 5.37 G/DL
URIC ACID [3]: 1.77 mg/dL
